Experimental data published in publication PMC10434001, “Glycosylated, Lipid-Binding, CDR-Like Domains of SARS-CoV-2 ORF8 Indicate Unique Sites of Immune Regulation” (Microbiology Spectrum, 2023).

Assays:
[1] = tested on: deglycosylated ORF8 binding to immune monocytes; test: Immune cell binding assay: peptide inhibition of deglycosylated ORF8 binding to monocytes; format: cell-based; settings: 50 μM peptide with 5 μM FITC-labeled deglycosylated ORF8; human monocytes; 4 h at 37°C; flow cytometry; Fig. 6E and F
[2] = tested on: glycosylated ORF8 binding to immune monocytes; test: Immune cell binding assay: peptide inhibition of glycosylated ORF8 binding to monocytes; format: cell-based; settings: 50 μM peptide with 5 μM FITC-labeled ORF8; human monocytes; 4 h at 37°C; flow cytometry; Fig. 6C and D
[3] = tested on: human immune monocytes (from PBMC); test: Binding of ORF8 protein forms to immune monocytes (flow cytometry); format: cell-based
[4] = after deglycosylation (PNGase F); observation during the experiments

TNERLCVRFE [P3, 10-residue peptide derived from IL17RA (aa89-98) designed against ORF8]
inhibition of deglycosylated ORF8 binding to immune monocytes [1]: significantly inhibited
inhibition of glycosylated ORF8 binding to immune cells [2]: no significant inhibitory effect

deglycosylated ORF8: ORF8 protein treated with PNGase F enzyme overnight
binding to immune cells relative to glycosylated ORF8 ([3]; FITC-labeled ORF8, human monocytes, flow cytometry, Fig. 6A and B): 2 fold

delipidated ORF8: ORF8 protein treated with 0.5% Triton X-100 overnight
binding to human immune cells compared with ORF8 with lipid modifications ([3]; co-incubated with human PBMC cells, lipid removed with 0.5% Triton X-100 overnight, Fig. 4G and H): higher percentage of binding

glycosylated ORF8: recombinant SARS-CoV-2 ORF8 (residues 16–121, MBP/His tag) expressed in 293F cells, glycosylated at N78
binding to immune cells ([3]; FITC-labeled ORF8, 5 μM, human monocytes, flow cytometry, Fig. 6A and B): weak binding
solubility of ORF8 [4]: deteriorated
